# Source: patent US6387881B1, “Inhibitors and substrates of thrombin” (priority 1992, dated 2002)
# Several values for one entry are separate records, joined by “and”; a condition that tells them apart may be missing. Identical values can stand only once. Like-named read-outs stand apart in the source and are kept apart here.
# Legend:
# [1] = target: T1, bovine thrombin in citrated normal human plasma (Bos taurus, UniProt P00735); experiment: Plasma thrombin time (TT), in vitro; assay type: biochemical; details: inhibitor concentration that caused a doubling of the thrombin time
# T1 construct: freshly prepared bovine thrombin (5 NIHu/ml saline)
# Method: (§1) A volume of 150 μl of citrated normal human plasma and 20 μl of buffer or sample were warmed at 37° C. for 1 min. Coagulation was started by adding 150 ul of freshly prepared bovine thrombin (5 NIHu/ml saline) and the coagulation time was recorded on a coagulometer.
# (§2) A phosphate buffer, pH 7.8, containing 0.1% bovine serum albumine and 0.02% sodium azide was used. The samples were dissolved in DMSO and diluted with the buffer. When no inhibitor was used DMSO was added to the buffer to the same concentration as that used in the samples. The inhibitor concentrations were plotted against the thrombin times in a semilogarithmic graph from which the inhibitor concentration that caused a doubling (40 sec) of the thrombin time was determined.
# human α-thrombin = human α-thrombin (Homo sapiens, UniProt P00734); experiment: biochemical; assay type: biochemical
# Method: The inhibition of human α-thrombin was determined by the inhibition of the enzyme catalyzed hydrolysis of three different concentrations of the chromogenic substrate S-2238.
# 200 μl of sample or buffer and 50 μl of S-2238 were incubated at 37° C. for 1 min and 50 μl of human α-thrombin (0.25 NIHu/ml) was added. The initial rate of inhibited and uninhibited reactions were recorded at 405 nm. The increase in optical density was plotted according to the method of Lineweaver and Burke. The Km and apparent Km were determined and Ki was calculated using the relationship: [formula]
# Kalhikrein = experiment: IC50 against kallikrein; assay type: biochemical
# Xa = target: T2, Xa (Homo sapiens, UniProt P00742); experiment: IC50 against Xa; assay type: biochemical
# T2 construct: Plasmin; Xa; Urokinase
# T2 sequence (P00742 41-179 limits assumed): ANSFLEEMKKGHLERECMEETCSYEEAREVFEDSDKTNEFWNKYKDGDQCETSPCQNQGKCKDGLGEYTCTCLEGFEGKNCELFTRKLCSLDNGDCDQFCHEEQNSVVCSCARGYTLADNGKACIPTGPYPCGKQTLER
# T2 sequence (P00742 235-488 limits assumed): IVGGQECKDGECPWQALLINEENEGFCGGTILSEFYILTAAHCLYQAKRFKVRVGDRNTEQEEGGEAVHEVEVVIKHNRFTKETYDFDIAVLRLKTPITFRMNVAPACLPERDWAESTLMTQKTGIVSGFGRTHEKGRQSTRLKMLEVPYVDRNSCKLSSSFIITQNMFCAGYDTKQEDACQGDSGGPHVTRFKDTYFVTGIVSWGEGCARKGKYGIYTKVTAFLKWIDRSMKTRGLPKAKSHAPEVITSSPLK
# Plasmin = Plasmin (Homo sapiens, UniProt P00747); experiment: IC50 against plasmin; assay type: biochemical
# Sequence of Plasmin (P00747 97-580 limits assumed, species assumed): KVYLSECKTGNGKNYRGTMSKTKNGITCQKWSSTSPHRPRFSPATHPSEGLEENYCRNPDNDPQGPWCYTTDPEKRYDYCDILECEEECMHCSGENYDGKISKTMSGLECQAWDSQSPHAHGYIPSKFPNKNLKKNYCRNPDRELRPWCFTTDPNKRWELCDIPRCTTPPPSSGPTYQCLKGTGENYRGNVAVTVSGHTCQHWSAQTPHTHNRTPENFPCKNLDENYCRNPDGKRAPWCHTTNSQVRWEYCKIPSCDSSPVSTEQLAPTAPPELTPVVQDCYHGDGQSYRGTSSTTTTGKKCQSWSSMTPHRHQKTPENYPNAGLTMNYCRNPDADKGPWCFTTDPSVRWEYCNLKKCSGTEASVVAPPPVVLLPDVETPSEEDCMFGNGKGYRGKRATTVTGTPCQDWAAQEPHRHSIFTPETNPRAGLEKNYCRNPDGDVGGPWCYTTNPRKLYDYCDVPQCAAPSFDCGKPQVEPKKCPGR
# Sequence of Plasmin (P00747 581-810 limits assumed, species assumed): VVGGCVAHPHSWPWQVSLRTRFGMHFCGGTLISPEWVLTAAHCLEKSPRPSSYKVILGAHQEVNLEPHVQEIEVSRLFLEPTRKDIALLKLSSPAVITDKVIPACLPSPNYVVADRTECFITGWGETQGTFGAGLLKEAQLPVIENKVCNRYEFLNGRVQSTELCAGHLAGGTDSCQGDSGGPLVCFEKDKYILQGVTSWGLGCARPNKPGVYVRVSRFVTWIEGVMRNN
# plasma samples = experiment: Ex-vivo APTT; assay type: in vivo, New Zealand white rabbits; design: unit not given here; details: 1 mg/kg i.v. bolus, rabbit
# Method: A volume of 150 μl of citrated (3.2%) normal human plasma was incubated at 37° C. with sample (20 μl) or buffer (20 μl, control) for 1 min. To the solution was added reconstituted “AUTOMATED APTT” (available from Organon Teknika, 0.1 ml). Each solution was activated at 37° C. for 5 min.
# After activation, calcium chloride (0.1 ml, 0.025M, prewarmed at 37° C.) was added and clot detection was timed using a “semiautomated coagulometer” (Nach, Schnicter und Gross).
# (§3) Data was obtained as for in-vitro tests, but using plasma samples obtained at 0, 1, 10, 30 and 60 minutes after dosing of 1 mg/kg, i.v. bolus injection in a marginal ear vein in New Zealand white rabbits, which were anaesthetized from a canula in the carotid artery. [drawing 18]
# Urokinase = Urokinase (Homo sapiens, UniProt P00749); experiment: IC50 against urokinase; assay type: biochemical
# [2] = Peripheral blood pressure after intravenous dose; assay type: in vivo, New Zealand white rabbits
# Excerpt: […] R. May, C. M. Hero, K. D. Butler, C. P. Page, JOURNAL OF PHARMACOLOGICAL METHODS, 24, pp 1-35, 1990. Peripheral blood pressure was monitored by a pressure sensor in the carotid artery.
# [3] = test system: 111indium-labelled platelets; experiment: Deposition of 111indium-labelled platelets after intravenous dose; assay type: in vivo, New Zealand white rabbits
# Excerpt: M. Hero, K. D. Butler, C. […] Peripheral blood pressure was monitored by a pressure sensor in the carotid artery.
# [4] = test system: bovine thrombin in plasma samples; experiment: Ex-vivo TT; assay type: in vivo, New Zealand white rabbits; design: key: thrombin (coagulation) time in seconds; details: 1 mg/kg i.v. bolus, rabbit
# Method: as §1, §2, §3
# [5] = IC50 with and without incubation (enzyme not given); assay type: biochemical
# [6] = single value given, incubation not given, read-out: Kalhikrein no inc/inc
# [7] = single value given, incubation not given, read-out: Xa no inc/inc
# [8] = single value given, incubation not given, read-out: Plasmin no inc/inc
# [9] = single value given, incubation not given, read-out: Urokinase no inc/inc
# [10] = no incubation, read-out: IC50 No Incubations
# [11] = with incubation, read-out: IC50 Inc.
# [12] = human α-thrombin, S-2238, 37° C., read-out: Ki
compound,measurement,setting,value
"N=C(N)NCCCC(NC(=O)C1CCCN1C(=O)C(N)C1c2ccccc2-c2ccccc21)C(=O)CCC(=O)N1CCCCC1 [Compound 8, D-Fgl-Pro-Arg--k--Gly-Pip]",TT,[1],50.0 µM
"N=C(N)Nc1ccc(CC(NC(=O)[C@@H]2CCCN2C(=O)[C@H](N)Cc2ccccc2)C(=O)CCC(=O)N2CCCCC2)cc1 (stereo partly drawn) [D-Phe-Pro-Gpa-k--Gly-Pip, D-Phe-Pro-Gpa--k--Gly-Pip]",Ki,human α-thrombin; read-out: Ki,1300 nM
same,TT,[1],4.9 µM
"CC(C)(C)OC(=O)NC(Cc1ccccc1)C(=O)N1CCCC1C(=O)NC(C=O)Cc1cnc[nH]1 [Compound 53, Boc-D-Phe-Pro-His-H]",IC50,Kalhikrein; [6],> 413000 nM
same,IC50,Xa; [7],> 413000 nM
same,IC50,Plasmin; [8],> 413000 nM
same,EX-VIVO A.P.T.T.,plasma samples; time 0 min,32.9 and 24.9
same,EX-VIVO A.P.T.T.,plasma samples; time 1 min,41.5 and 27.9 and 30.9
same,EX-VIVO A.P.T.T.,plasma samples; time 10 min,39.9 and 29.9 and 26 and 25.9
same,EX-VIVO A.P.T.T.,plasma samples; time 30 min,31.4 and 30.4 and 25.4 and 26.1
same,EX-VIVO A.P.T.T.,plasma samples; time 60 min,28.9 and 27.5 and 25.9
same,IC50,Urokinase; [9],> 413000 nM
same,BLOOD PRESSURE Δ% of NORM,[2]; 1 mg/kg i.v. dose,NONE
same,BLOOD PRESSURE Δ% of NORM,[2]; 4 mg/kg iv. dose,0 Δ% of NORM
same,PLATELET ACCUMULATION (% OF NORMAL) LEG,[3]; 1 mg/kg i.v. dose,NONE
same,PLATELET ACCUMULATION (% OF NORMAL) LUNG,[3]; 1 mg/kg i.v. dose,NONE
same,PLATELET ACCUMULATION (% OF NORMAL) LEG,[3]; 4 mg/kg iv. dose,NONE
same,PLATELET ACCUMULATION (% OF NORMAL) LUNG,[3]; 4 mg/kg iv. dose,NONE
same,EX-VIVO T.T.,[4]; time 0 min,26 and 27 and 24 and 24.9
same,EX-VIVO T.T.,[4]; time 1 min,86.9 and 83.5 and 80.9 and 74
same,EX-VIVO T.T.,[4]; time 10 min,32 and 30 and 29.9
same,EX-VIVO T.T.,[4]; time 30 min,24.4 and 25 and 25.9 and 25.4
same,EX-VIVO T.T.,[4]; time 60 min,24.4 and 23.9 and 22.9
"COCCCC(NC(=O)[C@@H]1CCCN1C(=O)[C@H](N)Cc1ccccc1)P(=O)(Oc1ccccc1)Oc1ccccc1 (stereo partly drawn) [Compound 40, H-D-Phe-Pro-Mpg^P(OPh)2]",IC50,[5]; [10],16600 nM
same,IC50,[5]; [11],11.8 nM
same,IC50,"Kalhikrein; no incubation (first value of cell), read-out: Kalhikrein no inc",> 20900 nM
same,IC50,"Kalhikrein; with incubation (second value of cell), read-out: Kalhikrein inc",> 20900 nM
same,IC50,"Xa; no incubation (first value of cell), read-out: Xa no inc",> 20900 nM
same,IC50,"Xa; with incubation (second value of cell), read-out: Xa inc",> 20900 nM
same,IC50,"Plasmin; no incubation (first value of cell), read-out: Plasmin no inc",> 20900 nM
same,IC50,"Urokinase; no incubation (first value of cell), read-out: Urokinase no inc",> 20900 nM
same,IC50,"Urokinase; with incubation (second value of cell), read-out: Urokinase inc",> 20900 nM
same,Ki,human α-thrombin; read-out: Ki,18.8 nM
"CC1(C)C2CC3OB(C(CCCSC(=N)N)NC(=O)C4CCCN4C(=O)C(Cc4ccccc4)NC(=O)OCc4ccccc4)OC3(C)C1C2 [Compound 25, Z-D-Phe-Pro-BoroIrg-OPin]",IC50,[5]; [10],1500 nM
same,IC50,[5]; [11],68 nM
same,IC50,Kalhikrein; [6],334 nM
same,IC50,Xa; [7],14.1 nM
same,IC50,Plasmin; [8],8.4 nM
same,IC50,Urokinase; [9],75 nM
same,BLOOD PRESSURE Δ% of NORM,[2]; 1 mg/kg i.v. dose,SMALL
same,BLOOD PRESSURE Δ% of NORM,[2]; 4 mg/kg iv. dose,100% Δ% of NORM
"CCCCCC(NC(=O)C1CCCN1C(=O)C(N)Cc1ccccc1)P(=O)(Oc1ccccc1)Oc1ccccc1 [Compound 20, D-Phe-Pro-Pgl^P(OPh)2]",Ki,human α-thrombin,109 nM
same,BLOOD PRESSURE Δ% of NORM,[2]; 1 mg/kg i.v. dose,NONE
same,PLATELET ACCUMULATION (% OF NORMAL) LEG,[3]; 1 mg/kg i.v. dose,NONE
same,PLATELET ACCUMULATION (% OF NORMAL) LUNG,[3]; 1 mg/kg i.v. dose,NONE
"NC(C(=O)N1CCCC1C(=O)NC(c1ccccc1)P(=O)(O)O)C(c1ccccc1)c1ccccc1 [Compound 16, D,L-Dpa-Pro-Pgl^P(OH)2]",IC50,[5]; [10],5160 nM
same,IC50,[5]; [11],81.7 nM
same,Ki,human α-thrombin; [12],223 nM
Z-D-Phe-Pro-BoroMbg-OPin [Compound 59],EX-VIVO A.P.T.T.,plasma samples; time 0 min,42 and 59.5 and 43.9 and 58
same,EX-VIVO A.P.T.T.,plasma samples; time 1 min,111.4 and 111 and 102.9 and 126
same,EX-VIVO A.P.T.T.,plasma samples; time 10 min,48.9 and 53 and 60.5 and 67
same,EX-VIVO A.P.T.T.,plasma samples; time 30 min,34.9 and 49 and 59 and 53.9
same,EX-VIVO A.P.T.T.,plasma samples; time 60 min,40.4 and 48.4 and 65.5 and 62
same,BLOOD PRESSURE Δ% of NORM,[2]; 1 mg/kg i.v. dose,NONE
same,PLATELET ACCUMULATION (% OF NORMAL) LEG,[3]; 1 mg/kg i.v. dose,NONE
same,PLATELET ACCUMULATION (% OF NORMAL) LUNG,[3]; 1 mg/kg i.v. dose,NONE
same,EX-VIVO T.T.,[4]; time 0 min,28.9 and 22.5 and 22.4 and 23.5
same,EX-VIVO T.T.,[4]; time 1 min,111 and 106 and 171.5 and 168.5
same,EX-VIVO T.T.,[4]; time 10 min,35.9 and 34 and 37.9 and 38.4
same,EX-VIVO T.T.,[4]; time 30 min,29 and 30 and 32 and 31
same,EX-VIVO T.T.,[4]; time 60 min,28.4 and 28.5 and 27.9 and 28
"CCCCCC(NC(=O)[C@@H]1CCCN1C(=O)[C@H](N)C(c1ccccc1)c1ccccc1)P(=O)(O)O (stereo partly drawn) [Compound 18, D-Dpa-Pro-Pgl^P(OH)2]",IC50,[5]; [10],148000 nM
same,IC50,[5]; [11],751 nM
same,Ki,human α-thrombin; [12],15100 nM
"CC(C)(C)OC(=O)NC(C(=O)N1CCCC1C(=O)NC(c1ccccc1)P(=O)(O)O)C(c1ccccc1)c1ccccc1 [Compound 15, Boc-D,L-Dpa-Pro-Pgl^P(OH)2]",IC50,[5]; [10],5280 nM
same,IC50,[5]; [11],83.6 nM
same,Ki,human α-thrombin; [12],59000 nM
